In series [1] the test system is OH-BBN-induced urinary bladder cancers. The note with it: prior studies; at their HEDs (aspirin at doses in substantial excess of its HED), even when initiated after pre-invasive microscopic cancers; cited from earlier work.
The test system is the same in series [2]. Kind of series: OH-BBN-induced urinary bladder cancer model. The class given is in vivo, Female Fischer-344 rats. The note with it: for number of rats with large urinary bladder cancers (>200 mg) at end of study: vehicle 24/25; for final weights of urinary bladder plus cancers vs vehicle control: end of study, Supplementary Fig. 1A/1B.
For series [3] the following is noted: NPX 40 mg/Kg BW gavage; for CI: serum.
For series [4], the system named is OH-BBN-induced urinary bladder cancers. The following applies: NPX limited treatment vs vehicle; Supplementary Fig. 3.
For series [5] the following is noted: humans; cited from earlier work.
The test system of series [6] is urinary bladder cancer. The following applies: dogs; cited from earlier work.
Series [7] concerns colon adenomas. The following applies: cited from earlier work.
Series [8] deals with colon, bladder, skin tumors. The following applies: doses which correspond to human doses of 100 or 325 mg; cited from earlier work.
The conditions of series [9]: multiple clinical studies; cited from earlier work.
The conditions of series [10]: rats, omeprazole levels at the human equivalent dose; cited from earlier work.
Where [11] appears, read: low to moderate doses of aspirin.

Here are results for eight compounds from paper PMC4383706 (Cancer prevention research (Philadelphia, Pa.), 2015).

Entries after “also recorded” stand apart in the source; their conditions may differ. Like-named read-outs stand apart in the source and are kept apart here.

As to `COc1ccc2cc([C@H](C)C(=O)OCCCCO[N+](=O)[O-])ccc2c1` [NO-NPX], the “blocking the development of large palpable cancers” value (from here on “blocking the development”) in series [1] was “effective”.
`COc1ccc2cc([C@H](C)C(=O)O)ccc2c1` [NPX, naproxen]: the “number of rats with large urinary bladder cancers (>200 mg) at end of study” value in [2] (1 week daily NPX (40 mg/kg BW/day)/1week vehicle (Group B)) is 6/29; in series [2] (3 week daily NPX (40 mg/kg BW/day)/3 week vehicle (Group C)), 5/28. Besides, the “rats with palpable cancers, protocol C” value in [2] (3 weeks daily NPX/3 week vehicle, vehicle 96%, P<0.01) is listed as 19%. For the same compound, the “inhibition of urinary bladder cancer formation” value in series [2] (NPX by gavage daily, 1 week on/1 week off, or 3 weeks on/3 weeks off, P<.005) is given as 73–82%. Also, the “rats with palpable cancers, protocol A” value in series [2] (NPX daily, beginning 2 weeks after last OH-BBN, vehicle 96%, P<0.01) is given as 27%. Further, in [2] (NPX daily, P<0.01), the “reduction of urinary bladder cancer incidence” value is “approximately 75%”. In series [2], the “final weights of urinary bladder plus cancers vs vehicle control” value is “final weights were higher in vehicle controls than in any of the three NPX treatment groups; also recorded: significantly different from control”. In series [3], the “time for which serum levels greater than 100 uM were achieved following gavage” value is “less than 6 hours”. Further, the CI entry was “.049 L/h/kg” in [3] (14 Day (14 consecutive days)) and “.058 L/h/kg” in [3] (24 hour (1 day) time point). Moreover, in series [4], the “levels of phosphorylated AKT (S473)” value is listed as “slightly, but significantly, decrease”. In series [4], the “phosphorylation of PI3K” value is “slightly, but significantly, decrease”. Also, the “blocking the development” value in series [1] is given as “effective”. For the same compound, the accumulation in urine entry in [5] is given as “preferentially accumulates in urine”.
In the case of `CN1C(C(=O)Nc2ccccn2)=C(O)c2ccccc2S1(=O)=O` [Piroxicam], the “therapeutic efficacy in urinary bladder cancer” value in series [6] is given as “has shown therapeutic efficacy”.
In the case of `CC(=O)Oc1ccccc1C(=O)O` [aspirin], the “blocking the development” value in series [1] is given as “effective”. Besides, in series [7] (setting [11]), the “decrease in advanced adenomas” value is reported as 35–40% and the “decrease in total adenomas” value was 20–25%. In series [8], the “preventive efficacy in animal models” value is “routinely ineffective”.
Consider `Cc1ccc(-c2cc(C(F)(F)F)nn2-c2ccc(S(N)(=O)=O)cc2)cc1` [celecoxib], for which the “blocking the development” value in series [1] was “effective”. Moreover, in series [7] (clinical trial), the “decrease in advanced adenomas” value is recorded as 55–65% and the “decrease in total colon adenomas” value is about 45%.
Consider `COc1ccc2[nH]c([S+]([O-])Cc3ncc(C)c(OC)c3C)nc2c1` (stereo not shown) [omeprazole], for which the “final weights of urinary bladder plus cancers vs vehicle control” value in [2] is recorded as “larger in size than tumors in rats given the vehicle alone”. For the same compound, the “decrease of GI bleeding” value in series [9] is 50–75%. For the same compound, the “acidity of the stomach” value in series [10] is “decreased the acidity of the stomach”.
For the compound `CN(CCOc1ccc(CC2SC(=O)NC2=O)cc1)c1ccccn1` (stereo not shown) [rosiglitazone], the tumor latency entry in [2] (rosiglitazone 10 mg/kg BW/day by gavage, 10 rats) was “greatly decreased tumor latency”.
Turning to `CC1=C(CC(=O)O)c2cc(F)ccc2/C1=C\c1ccc([S+](C)[O-])cc1` (stereo not shown) [sulindac], in [1], the “blocking the development” value is recorded as “effective”.
